The subject of the experiment is ATF4 luciferase reporter in HEK293T cells. The experiment in a line: ATF4-Luc assay (in vitro model of VWMD). The format is cell-based, human. To be noted: Homo sapiens, HEK-293T, 7 h, HEK293T cells carrying the ATF4 luciferase reporter, 1 μg/mL tunicamycin, One Glo luminescence. The protocol: In order to test exemplary compounds of the invention in a cellular context, a stable VWMD cell line was first constructed. The ATF4 reporter was prepared by fusing the human full-length ATF4 5′-UTR (NCBI Accession No. BC022088.2) in front of the firefly luciferase (FLuc) coding sequence lacking the initiator methionine as described in Sidrauski et al (eLife 2013). The construct was used to produce recombinant retroviruses using standard methods and the resulting viral supernatant was used to transduce HEK293T cells, which were then subsequently selected with puromycin to generate a stable cell line.
HEK293T cells carrying the ATF4 luciferase reporter were plated on polylysine coated 384-well plates (Greiner Bio-one) at 30,000 cells per well. Cells were treated the next day with 1 μg/mL tunicamycin and 200 nM of a compound of Formula (I) for 7 hours. Luminescence was measured using One Glo (Promega) as specified by the manufacturer. Cells were maintained in DMEM with L-glutamine supplemented with 10% heat-inactivated FBS (Gibco) and Antibiotic-Antimycotic solution (Gibco).
Table 4 below summarizes the EC50 data obtained using the ATF4-Luc assay for exemplary compounds of the invention.
(In general: Reporter assays use an easily measured gene product as a stand-in for the process of interest.)

pEC50: −log10 of the molar value.

As usually defined, the pEC50 is the EC50 on a negative log10 scale, so that one unit is a factor of ten. Regarding `O=C(COc1ccc(Cl)c(F)c1)NC12CC(c3ccc(C(=O)N4CC(COC(F)(F)F)C4)nc3)(C1)C2` [Compound 600, 2-(4-chloro-3-fluorophenoxy)-N-[3-(6-{3-[(trifluoromethoxy)methyl]azetidine-1-carbonyl}pyridin-3-yl)bicyclo[1.1.1]pentan-1-yl]acetamide], the pEC50 was greater than 8.00.

`O=C(NC12CC(n3cc(C4CCN(CC(F)(F)F)CC4)cn3)(C1)C2)[C@H]1C[C@@H](O)c2cc(Cl)ccc2O1` [Compound 580, (2R,4R)-6-chloro-4-hydroxy-N-(3-{4-[1-(2,2,2-trifluoroethyl)piperidin-4-yl]-1H-pyrazol-1-yl}bicyclo[1.1.1]pentan-1-yl)-3,4-dihydro-2H-1-benzopyran-2-carboxamide]: the negative logarithm of the EC50 (pEC50) is greater than 8.00. For `O=C(NC12CC(c3ccc(OCCCOC(F)(F)F)nc3)(C1)C2)[C@H]1C[C@@H](O)c2cc(Cl)ccc2O1` [Compound 438, (2R,4R)-6-chloro-4-hydroxy-N-(3-{6-[3-(trifluoromethoxy)propoxy]pyridin-3-yl}bicyclo[1.1.1]pentan-1-yl)-3,4-dihydro-2H-1-benzopyran-2-carboxamide] the value was 7.30 to 8.00. Next, `O=C(NC12CC(c3cc(OCCCOC(F)(F)F)ncn3)(C1)C2)[C@H]1C[C@@H](O)c2cc(Cl)ccc2O1` [Compound 648, (2R,4R)-6-chloro-4-hydroxy-N-(3-{6-[3-(trifluoromethoxy)propoxy]pyrimidin-4-yl}bicyclo[1.1.1]pentan-1-yl)-3,4-dihydro-2H-1-benzopyran-2-carboxamide]: greater than 8.00; `COc1ncc(OCC(=O)NC23CC(c4ccnc(OCCCOC(F)(F)F)c4)(C2)C3)cn1` [Compound 452, 2-[(2-methoxypyrimidin-5-yl)oxy]-N-(3-{2-[3-(trifluoromethoxy)propoxy]pyridin-4-yl}bicyclo[1.1.1]pentan-1-yl)acetamide]: 6.30 to 6.60. Next, `O=C(NC12CCC(n3cc(OCCOC(F)(F)F)cn3)(C1)C2)[C@H]1C[C@@H](O)c2cc(Cl)ccc2O1` [Compound 594, (2R,4R)-6-chloro-4-hydroxy-N-(4-{4-[2-(trifluoromethoxy)ethoxy]-1H-pyrazol-1-yl}bicyclo[2.1.1]hexan-1-yl)-3,4-dihydro-2H-1-benzopyran-2-carboxamide]: 6.60 to 7.30; `O=C(NC12CC(c3cn([C@H]4C[C@@H](OC(F)(F)F)C4)nn3)(C1)C2)[C@H]1C[C@@H](O)c2cc(Cl)ccc2O1` [Compound 315, (2R,4R)-6-chloro-4-hydroxy-N-(3-{1-[cis-3-(trifluoromethoxy)cyclobutyl]-1H-1,2,3-triazol-4-yl}bicyclo[1.1.1]pentan-1-yl)-3,4-dihydro-2H-1-benzopyran-2-carboxamide]: 7.30 to 8.00; `O=C(NC12CC(n3cc([C@@H]4CC[C@@H](OC(F)(F)F)C4)nn3)(C1)C2)[C@H]1C[C@@H](O)c2cc(Cl)ccc2O1` (mixture of isomers) [Compound 538, (2R,4R)-6-chloro-4-hydroxy-N-(3-{4-[(1RS,3RS)-3-(trifluoromethoxy)cyclopentyl]-1H-1,2,3-triazol-1-yl}bicyclo[1.1.1]pentan-1-yl)-3,4-dihydro-2H-1-benzopyran-2-carboxamide]: greater than 8.00. Regarding `O=C(NC12CC(n3cc(CCCOC(F)(F)F)cn3)(C1)C2)[C@H]1CC(O)c2cc(Cl)ccc2O1` (stereo in doubt) [Compound 463, (2R,4R)-6-chloro-4-hydroxy-N-(3-{4-[3-(trifluoromethoxy)propyl]-1H-pyrazol-1-yl}bicyclo[1.1.1]pentan-1-yl)-3,4-dihydro-2H-1-benzopyran-2-carboxamide], the pEC50 was greater than 8.00. For `O=C(N[C@H]1CC[C@H](n2cc(OCCOC(F)(F)F)cn2)CC1)[C@H]1C[C@@H](O)c2cc(Cl)ccc2O1` [Compound 421, (2R,4R)-6-chloro-4-hydroxy-N-[(1r,4R)-4-{4-[2-(trifluoromethoxy)ethoxy]-1H-pyrazol-1-yl}cyclohexyl]-3,4-dihydro-2H-1-benzopyran-2-carboxamide] the value was greater than 8.00; for `O=C(NC12CC(n3cc(-c4ccc(C(F)(F)F)cn4)cn3)(C1)C2)[C@H]1C[C@@H](O)c2cc(Cl)c(F)cc2O1` [Compound 482, (2R,4R)-6-chloro-7-fluoro-4-hydroxy-N-(3-{4-[5-(trifluoromethyl)pyridin-2-yl]-1H-pyrazol-1-yl}bicyclo[1.1.1]pentan-1-yl)-3,4-dihydro-2H-1-benzopyran-2-carboxamide], greater than 8.00; for `O=C(N[C@H]1CC[C@H](n2cc(-c3ccc(OC(F)(F)F)cn3)cn2)CC1)[C@H]1C[C@@H](O)c2cc(Cl)ccc2O1` [Compound 481, (2R,4R)-6-chloro-4-hydroxy-N-[(1r,4R)-4-{4-[5-(trifluoromethoxy)pyridin-2-yl]-1H-pyrazol-1-yl}cyclohexyl]-3,4-dihydro-2H-1-benzopyran-2-carboxamide], greater than 8.00.

Consider `O=C(N[C@H]1CC[C@H](n2cc(OCCOC(F)(F)F)cn2)CC1)[C@H]1C[C@@H](O)c2cc(F)c(F)cc2O1` [Compound 638, (2R,4R)-6,7-difluoro-4-hydroxy-N-[(1r,4R)-4-{4-[2-(trifluoromethoxy)ethoxy]-1H-pyrazol-1-yl}cyclohexyl]-3,4-dihydro-2H-1-benzopyran-2-carboxamide], for which the pEC50 is greater than 8.00. For `O=C(NC12CC(n3cc(-c4ccc(C(F)(F)F)cn4)cn3)(C1)C2)[C@H]1CNc2cc(Cl)ccc2O1` [Compound 572, (2R)-6-chloro-N-(3-{4-[5-(trifluoromethyl)pyridin-2-yl]-1H-pyrazol-1-yl}bicyclo[1.1.1]pentan-1-yl)-3,4-dihydro-2H-1,4-benzoxazine-2-carboxamide] the value was greater than 8.00. Next, `O=C(NC12CC(c3ccc(C(=O)N4CC(COC(F)(F)F)C4)nc3)(C1)C2)[C@H]1C[C@@H](O)c2cc(Cl)ccc2O1` [Compound 537, (2R,4R)-6-chloro-4-hydroxy-N-[3-(6-{3-[(trifluoromethoxy)methyl]azetidine-1-carbonyl}pyridin-3-yl)bicyclo[1.1.1]pentan-1-yl]-3,4-dihydro-2H-1-benzopyran-2-carboxamide]: greater than 8.00; `O=C(NC12CC(n3cnc(-c4ccc(Cl)c(F)c4F)c3)(C1)C2)[C@H]1C[C@@H](O)c2cc(Cl)ccc2O1` [Compound 394, (2R,4R)-6-chloro-N-{3-[4-(4-chloro-2,3-difluorophenyl)-1H-imidazol-1-yl]bicyclo[1.1.1]pentan-1-yl}-4-hydroxy-3,4-dihydro-2H-1-benzopyran-2-carboxamide]: greater than 8.00; `O=C(NC12CC(n3cc(-c4ccc(OC(F)(F)F)cn4)cn3)(C1)C2)[C@H]1C[C@@H](O)c2cc(C(F)(F)F)c(F)cc2O1` [Compound 485, (2R,4R)-7-fluoro-4-hydroxy-N-(3-{4-[5-(trifluoromethoxy)pyridin-2-yl]-1H-pyrazol-1-yl}bicyclo[1.1.1]pentan-1-yl)-6-(trifluoromethyl)-3,4-dihydro-2H-1-benzopyran-2-carboxamide]: greater than 8.00.

As to `O=C(NC12CC(n3cc(C[C@H]4C[C@H](OC(F)(F)F)C4)cn3)(C1)C2)[C@H]1C[C@@H](O)c2cc(Cl)ccc2O1` [Compound 529, (2R,4R)-6-chloro-4-hydroxy-N-[3-(4-{[(1r,3S)-3-(trifluoromethoxy)cyclobutyl]methyl}-1H-pyrazol-1-yl)bicyclo[1.1.1]pentan-1-yl]-3,4-dihydro-2H-1-benzopyran-2-carboxamide], the negative logarithm of the EC50 (pEC50) is 7.30 to 8.00. Next, `O=C(NC12CC(c3ccc(OCCOC(F)(F)F)nc3)(C1)C2)[C@H]1C[C@@H](O)c2cc(Cl)ccc2O1` [Compound 450, (2R,4R)-6-chloro-4-hydroxy-N-(3-{6-[2-(trifluoromethoxy)ethoxy]pyridin-3-yl}bicyclo[1.1.1]pentan-1-yl)-3,4-dihydro-2H-1-benzopyran-2-carboxamide]: 6.60 to 7.30; `O=C(NC12CC(n3cc(-c4ccn(CC(F)(F)F)c4)cn3)(C1)C2)[C@H]1C[C@@H](O)c2cc(Cl)ccc2O1` [Compound 547, (2R,4R)-6-chloro-4-hydroxy-N-(3-{4-[1-(2,2,2-trifluoroethyl)-1H-pyrrol-3-yl]-1H-pyrazol-1-yl}bicyclo[1.1.1]pentan-1-yl)-3,4-dihydro-2H-1-benzopyran-2-carboxamide]: greater than 8.00; `O=C(NC12CC(n3cc(NCCCOC(F)(F)F)cn3)(C1)C2)[C@H]1C[C@@H](O)c2cc(Cl)ccc2O1` [Compound 444, (2R,4R)-6-chloro-4-hydroxy-N-[3-(4-{[3-(trifluoromethoxy)propyl]amino}-1H-pyrazol-1-yl)bicyclo[1.1.1]pentan-1-yl]-3,4-dihydro-2H-1-benzopyran-2-carboxamide]: greater than 8.00.

`Cc1cc(C)cc(OCC2CN(C34CC(NC(=O)[C@H]5CC(=O)c6cc(Cl)ccc6O5)(C3)C4)C(=O)O2)c1` (stereo partly drawn) [Compound 100, (2R)-6-chloro-N-(3-{5-[(3,5-dimethylphenoxy)methyl]-2-oxo-1,3-oxazolidin-3-yl}bicyclo[1.1.1]pentan-1-yl)-4-oxo-3,4-dihydro-2H-1-benzopyran-2-carboxamide]: the pEC50 was less than 5.70. As for `O=C(NC12CC(n3cc(N4CCC(OC(F)(F)F)C4)cn3)(C1)C2)[C@H]1C[C@@H](O)c2cc(Cl)ccc2O1` (stereo partly drawn) [Compound 325, (2R,4R)-6-chloro-4-hydroxy-N-(3-{4-[3-(trifluoromethoxy)pyrrolidin-1-yl]-1H-pyrazol-1-yl}bicyclo[1.1.1]pentan-1-yl)-3,4-dihydro-2H-1-benzopyran-2-carboxamide], the negative-log EC50 (pEC50) is greater than 8.00.

These data come from patent US20250145594A1, “MODULATORS OF THE INTEGRATED STRESS PATHWAY” (Calico Life Sciences LLC, priority 2020, published 2025).
